Source: ChEMBL document CHEMBL1145829, “Estrogen receptor modulators: identification and structure-activity relationships of potent ERalpha-selective tetrahydroisoquinoline ligands” (J Med Chem, 2003)

Assays:
MCF7 [1] = test: cells; details: Homo sapiens
MCF7 [2] = test: cells; details: Homo sapiens; remark: listed apart in the source
Estrogen receptor [3] = biological target: T1, Estrogen receptor (Homo sapiens, UniProt P03372)
T1 sequence (P03372 whole entry): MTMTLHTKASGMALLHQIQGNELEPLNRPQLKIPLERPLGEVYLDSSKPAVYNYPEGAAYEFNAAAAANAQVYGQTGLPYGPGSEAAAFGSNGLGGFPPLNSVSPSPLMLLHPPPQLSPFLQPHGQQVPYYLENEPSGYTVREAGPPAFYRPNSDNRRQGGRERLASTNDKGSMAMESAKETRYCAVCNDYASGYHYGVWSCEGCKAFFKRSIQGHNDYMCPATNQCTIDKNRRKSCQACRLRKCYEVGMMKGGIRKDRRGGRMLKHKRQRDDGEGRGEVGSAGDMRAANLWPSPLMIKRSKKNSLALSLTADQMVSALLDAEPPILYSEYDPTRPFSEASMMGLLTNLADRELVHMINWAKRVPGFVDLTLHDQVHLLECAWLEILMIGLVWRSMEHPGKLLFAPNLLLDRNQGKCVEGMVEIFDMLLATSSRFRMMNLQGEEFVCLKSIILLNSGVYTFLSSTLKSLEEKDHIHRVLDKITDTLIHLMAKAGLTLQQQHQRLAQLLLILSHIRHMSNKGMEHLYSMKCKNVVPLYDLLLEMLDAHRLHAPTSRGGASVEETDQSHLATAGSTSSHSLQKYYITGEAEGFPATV

MCF7 [4] = tested on: MCF7
Estrogen receptor beta [5] = biological target: T2, Estrogen receptor beta (Homo sapiens, UniProt Q92731)
Estrogen receptor beta [6] = biological target: T2, Estrogen receptor beta; remark: listed apart in the source
[7] = Terminal half life was tested after peroral administration (5 mg/kg) in conscious rat; type: ADME, organism-based; details: in vivo, po
[8] = Total clearance value was tested after peroral administration (5 mg/kg ) in conscious rat; type: ADME, organism-based; details: in vivo, po
in vivo = details: rat, po, 5 mg/kg
Rattus norvegicus = test: Maximal blood concentration after peroral administration (dose normalized) (5 mg/kg) in conscious rat; type: ADME, organism-based; design: dose 5 mg/kg, route oral; details: in vivo, po
MCF7 [9] = tested on: MCF7; remark: listed apart in the source
Estrogen receptor [10] = biological target: T1, Estrogen receptor; remark: listed apart in the source
Estrogen receptor [11] = biological target: T1, Estrogen receptor; test: Inhibition of estrogen receptor alpha mediated transcriptional activation

Structure (SMILES): CC1(c2ccc(OCCN3CCCCC3)cc2)c2ccc(O)cc2CCN1c1cccc(O)c1 (centres undefined)
- EC50 (MCF7 [1]): < 0.1 nM
- IC50 (MCF7 [2]): 2 nM
- IC50 (Estrogen receptor [3]): 34 nM
- Agonism (MCF7 [4]): 10%
- IC50 (Estrogen receptor beta [5]): 304 nM
- IC50 (Estrogen receptor beta [6]): 47 nM

Structure (SMILES): CC1(c2ccc(OCCN3CCCCC3)cc2)c2ccc(O)cc2CCN1c1ccccc1 (centres undefined)
- EC50 (MCF7 [1]): < 0.1 nM
- IC50 (MCF7 [2]): 4 nM
- IC50 (Estrogen receptor [3]): 29 nM
- Agonism (MCF7 [4]): 13%
- half-life [7]: 5.2 h
- IC50 (Estrogen receptor beta [5]): 104 nM
- CL/F [8]: 116 mL/min/kg
- IC50 (Estrogen receptor beta [6]): 83 nM
- bioavailability (in vivo): 23%
- Cmax (Rattus norvegicus): 5.2 nM

Structure (SMILES): CC1(c2ccc(OCCN3CCCCC3)cc2)c2ccc(O)cc2CCN1c1ccc(Cl)cc1 (centres undefined)
- EC50 (MCF7 [1]): < 0.1 nM
- IC50 (MCF7 [2]): 5.2 nM
- IC50 (Estrogen receptor [3]): 35 nM
- Agonism (MCF7 [4]): 8%
- IC50 (Estrogen receptor beta [5]): 396 nM
- IC50 (Estrogen receptor beta [6]): 552 nM

Structure (SMILES): Oc1ccc2c(c1)CCN(c1ccccc1)C2c1ccc(OCCN2CCCCC2)cc1 (centres undefined)
- EC50 (MCF7 [9]): < 0.15 pnM
- half-life [7]: 3.5 h
- CL/F [8]: 51.9 mL/min/kg
- bioavailability (in vivo): 42%
- Cmax (Rattus norvegicus): 31 nM

Structure (SMILES): Cl.O=C(c1ccc(OCCN2CCCCC2)cc1)c1c(-c2ccc(O)cc2)sc2cc(O)ccc12 [RALOXIFENE HYDROCHLORIDE]
- EC50 (MCF7 [1]): 0.02 nM
- half-life [7]: 1.7 h
- CL/F [8]: 158 mL/min/kg
- Cmax (Rattus norvegicus): 7.5 nM

Structure (SMILES): Oc1ccc2c(c1)CCN(c1ccccc1)C2c1ccc(OCCN2CCCC2)cc1 (centres undefined)
- EC50 (MCF7 [1]): < 0.1 nM
- IC50 (MCF7 [2]): 29 nM
- IC50 (Estrogen receptor [3]): 21 nM
- IC50 (Estrogen receptor [10]): 10.7 nM
- Agonism (MCF7 [4]): 34%
- half-life [7]: 3 h
- IC50 (Estrogen receptor beta [5]): 166 nM
- CL/F [8]: 55 mL/min/kg
- IC50 (Estrogen receptor beta [6]): 291 nM
- bioavailability (in vivo): 73%
- Cmax (Rattus norvegicus): 55 nM

Structure (SMILES): CC1(c2ccc(OCCN3CCCC3)cc2)c2ccc(O)cc2CCN1c1cccc(Cl)c1 (centres undefined)
- EC50 (MCF7 [1]): < 0.1 nM
- IC50 (MCF7 [2]): 7 nM
- IC50 (Estrogen receptor [3]): 66 nM
- Agonism (MCF7 [4]): 20%
- IC50 (Estrogen receptor beta [5]): 272 nM
- IC50 (Estrogen receptor beta [6]): 106 nM

Structure (SMILES): Cl.Oc1ccc2c(c1)CC[C@H](c1ccccc1)[C@@H]2c1ccc(OCCN2CCCC2)cc1
- EC50 (MCF7 [1]): 0.02 nM
- half-life [7]: 5.2 h
- CL/F [8]: 55.7 mL/min/kg
- bioavailability (in vivo): 38%
- Cmax (Rattus norvegicus): 15.5 nM

Structure (SMILES): CN(C)c1cccc(N2CCc3cc(O)ccc3C2(C)c2ccc(OCCN3CCCCC3)cc2)c1 (centres undefined)
- EC50 (MCF7 [1]): < 0.5 nM
- IC50 (MCF7 [2]): 36 nM
- IC50 (Estrogen receptor [3]): 71 nM
- IC50 (Estrogen receptor [10]): 19.8 nM
- Agonism (MCF7 [4]): 18%
- IC50 (Estrogen receptor beta [5]): 3110 nM
- IC50 (Estrogen receptor beta [6]): 2180 nM

Structure (SMILES): CC(C)c1ccc(N2CCc3cc(O)ccc3C2(C)c2ccc(OCCN3CCCC3)cc2)cc1 (centres undefined)
- EC50 (MCF7 [1]): < 0.1 nM
- IC50 (MCF7 [2]): 3.2 nM
- IC50 (Estrogen receptor [3]): 44 nM
- Agonism (MCF7 [4]): 10%
- IC50 (Estrogen receptor beta [5]): 1970 nM
- IC50 (Estrogen receptor beta [6]): 4970 nM

Structure (SMILES): Cc1ccc(N2CCc3cc(O)ccc3C2(C)c2ccc(OCCN3CCCC3)cc2)cc1 (centres undefined)
- EC50 (MCF7 [1]): < 0.1 nM
- IC50 (MCF7 [2]): 4.1 nM
- IC50 (Estrogen receptor [3]): 31 nM
- Agonism (MCF7 [4]): 14%
- IC50 (Estrogen receptor [11]): 3.5 nM
- IC50 (Estrogen receptor beta [5]): 354 nM
- IC50 (Estrogen receptor beta [6]): 448 nM

Structure (SMILES): Cc1ccc(N2CCc3cc(O)ccc3C2(C)c2ccc(OCCN3CCCCC3)cc2)cc1 (centres undefined)
- EC50 (MCF7 [1]): < 0.1 nM
- IC50 (MCF7 [2]): 4 nM
- IC50 (Estrogen receptor [3]): 28 nM
- IC50 (Estrogen receptor [10]): 2.9 nM
- Agonism (MCF7 [4]): 9%
- IC50 (Estrogen receptor beta [5]): 421 nM
- IC50 (Estrogen receptor beta [6]): 486 nM

Structure (SMILES): CN(C)c1cccc(N2CCc3cc(O)ccc3C2(C)c2ccc(OCCN3CCCC3)cc2)c1 (centres undefined)
- EC50 (MCF7 [1]): < 0.5 nM
- IC50 (MCF7 [2]): 32 nM
- IC50 (Estrogen receptor [3]): 94 nM
- IC50 (Estrogen receptor [10]): 19 nM
- Agonism (MCF7 [4]): 19%
- IC50 (Estrogen receptor beta [5]): 2200 nM
- IC50 (Estrogen receptor beta [6]): 2970 nM

Structure (SMILES): CC1(c2ccc(OCCN3CCCC3)cc2)c2ccc(O)cc2CCN1c1ccccc1 (centres undefined)
- IC50 (Estrogen receptor [3]): 38 nM
- IC50 (Estrogen receptor beta [5]): 227 nM
- IC50 (Estrogen receptor beta [6]): 83 nM

Structure (SMILES): CC1(c2ccc(OCCN3CCCC3)cc2)c2ccc(O)cc2CCN1c1cccc(F)c1 (centres undefined)
- EC50 (MCF7 [1]): < 0.1 nM
- IC50 (MCF7 [2]): 3.8 nM
- IC50 (Estrogen receptor [3]): 39 nM
- Agonism (MCF7 [4]): 5%
- IC50 (Estrogen receptor beta [5]): 123 nM
- IC50 (Estrogen receptor beta [6]): 198 nM

Structure (SMILES): CC/C(=C(\c1ccccc1)c1ccc(OCCN(C)C)cc1)c1ccccc1 [TAMOXIFEN]
- EC50 (MCF7 [1]): 10 nM

Structure (SMILES): CCC(=C(c1ccc(O)cc1)c1ccc(OCCN(C)C)cc1)c1ccccc1
- EC50 (MCF7 [1]): 0.12 nM
- IC50 (MCF7 [2]): 8.5 nM
- Agonism (MCF7 [4]): 31%

Structure (SMILES): CC1(c2ccc(OCCN3CCCC3)cc2)c2ccc(O)cc2CCN1c1ccc(Cl)cc1 (centres undefined)
- EC50 (MCF7 [1]): < 0.1 nM
- IC50 (MCF7 [2]): 6.2 nM
- IC50 (Estrogen receptor [3]): 27 nM
- IC50 (Estrogen receptor [10]): 3.3 nM
- Agonism (MCF7 [4]): 10%
- IC50 (Estrogen receptor beta [5]): 302 nM
- IC50 (Estrogen receptor beta [6]): 531 nM

Structure (SMILES): CC(C)c1cccc(N2CCc3cc(O)ccc3C2(C)c2ccc(OCCN3CCCCC3)cc2)c1 (centres undefined)
- EC50 (MCF7 [1]): < 0.4 nM
- IC50 (MCF7 [2]): 27 nM
- IC50 (Estrogen receptor [3]): 46 nM
- IC50 (Estrogen receptor [10]): 16.1 nM
- Agonism (MCF7 [4]): 16%
- IC50 (Estrogen receptor beta [5]): 1100 nM
- IC50 (Estrogen receptor beta [6]): 492 nM

Structure (SMILES): CC1(c2ccc(OCCN3CCCC3)cc2)c2ccc(O)cc2CCN1c1cccc(O)c1 (centres undefined)
- EC50 (MCF7 [1]): < 0.5 nM
- IC50 (MCF7 [2]): 2 nM
- Agonism (MCF7 [4]): 15%
- half-life [7]: 5.9 h
- IC50 (Estrogen receptor beta [5]): 190 nM
- CL/F [8]: 130 mL/min/kg
- IC50 (Estrogen receptor beta [6]): 33 nM
- bioavailability (in vivo): 15%
- Cmax (Rattus norvegicus): 5.3 nM

Structure (SMILES): CC1(c2ccc(OCCN3CCCCCC3)cc2)c2ccc(O)cc2CCN1c1ccccc1 (centres undefined)
- EC50 (MCF7 [1]): < 0.1 nM
- IC50 (MCF7 [2]): 6 nM
- IC50 (Estrogen receptor [3]): 56 nM
- Agonism (MCF7 [4]): 13%
- IC50 (Estrogen receptor beta [5]): 200 nM
- IC50 (Estrogen receptor beta [6]): 80 nM

Structure (SMILES): CC(C)c1ccc(N2CCc3cc(O)ccc3C2(C)c2ccc(OCCN3CCCCC3)cc2)cc1 (centres undefined)
- EC50 (MCF7 [1]): < 0.1 nM
- IC50 (MCF7 [2]): 3.4 nM
- IC50 (Estrogen receptor [3]): 71 nM
- Agonism (MCF7 [4]): 14%
- IC50 (Estrogen receptor beta [5]): 3690 nM
- IC50 (Estrogen receptor beta [6]): 4780 nM

Structure (SMILES): CC1(c2ccc(OCCN3CCCCC3)cc2)c2ccc(O)cc2CCN1c1cccc(Cl)c1 (centres undefined)
- EC50 (MCF7 [1]): < 0.1 nM
- IC50 (MCF7 [2]): 8 nM
- IC50 (Estrogen receptor [3]): 49 nM
- Agonism (MCF7 [4]): 18%
- IC50 (Estrogen receptor beta [5]): 284 nM
- IC50 (Estrogen receptor beta [6]): 159 nM

Structure (SMILES): Oc1ccc2c(c1)CCN(c1ccccc1)C2c1ccc(F)cc1 (centres undefined)
- EC50 (MCF7 [1]): 1 nM

Structure (SMILES): CC1(c2ccc(OCCN3CCCCC3)cc2)c2ccc(O)cc2CCN1c1ccc(F)cc1 (centres undefined)
- Agonism (MCF7 [4]): 13%
- half-life [7]: 7.1 h
- IC50 (Estrogen receptor beta [5]): 317 nM
- CL/F [8]: 64.9 mL/min/kg
- IC50 (Estrogen receptor beta [6]): 92 nM
- bioavailability (in vivo): 56%
- Cmax (Rattus norvegicus): 16 nM

Structure (SMILES): CC1(c2ccc(OCCN3CCCC3)cc2)c2ccc(O)cc2CCN1c1ccc(F)cc1 (centres undefined)
- EC50 (MCF7 [1]): < 0.1 nM
- IC50 (MCF7 [2]): 3.5 nM
- IC50 (Estrogen receptor [3]): 31 nM
- Agonism (MCF7 [4]): 16%
- half-life [7]: 8.6 h
- IC50 (Estrogen receptor beta [5]): 204 nM
- CL/F [8]: 45.2 mL/min/kg
- IC50 (Estrogen receptor beta [6]): 82 nM
- bioavailability (in vivo): 53%
- Cmax (Rattus norvegicus): 20 nM
